According to publication PMC4654880, “A comparison of the enzymatic properties of three recombinant isoforms of thrombolytic and antibacterial protein—Destabilase-Lysozyme from medicinal leech” (BMC Biochemistry, 2015):

How the values were obtained:
Test in all cases: isopeptidase assay, p-nitroaniline release, A405
Assay type in all cases: biochemical, Hirudo medicinalis
Conditions in all cases: pH 5.5, no NaCl (stated for activity), 37 °C
[1] = tested on: T1, mlDL-Ds1
T1 construct: gene Ds-1; ~16 kDa band printed for Ds3; monomer by gel filtration; synthetic codon-optimised gene
From the text: isopeptidase assay, p-nitroaniline release, A405 on mlDL-Ds1

[2] = tested on: T2, mlDL-Ds3
T2 construct: gene Ds-3; ~16 kDa; monomer by gel filtration; synthetic codon-optimised gene
From the text: isopeptidase assay, p-nitroaniline release, A405 on mlDL-Ds3

[3] = substrate: N[C@@H](CCC(=O)Nc1ccc([N+](=O)[O-])cc1)C(=O)O
From the text: isopeptidase assay, p-nitroaniline release, A405 on mlDL-Ds2

## N[C@@H](CCC(=O)Nc1ccc([N+](=O)[O-])cc1)C(=O)O [L-γ-Glu-pNA]
[1]
  Km: 40 µM
[2]
  Km: 20 µM

B1: mlDL-Ds2 (Hirudo medicinalis) (protein)
chain: QFTDSCLRCICKVEGCDSQIGKCGMDVGSLSCGPYQIKKPYWIDCGKPGGGYESCTKNKACSETCVRAYMKRYGTFCTGGRTPTCQDYARIHNGGPRGCKSSATVGYWNKVQKCLR
notes: monomer by gel filtration; synthetic codon-optimised gene
[3]
  Km: 50 µM
  kcat: 0.08 s⁻¹
